Where “and” joins values, the source holds several entries; their conditions need not be identical. Equal entries are not always repeated.
B1: Numax ™: enhanced potency RSV-specific monoclonal antibody derived by in vitro affinity maturation of palivizumab (antibody, listed as Chimaera sp., V domains shown)
VH: QVTLRESGPALVKPTQTLTLTCTFSGFSLSTAGMSVGWIRQPPGKALEWLADIWWDDKKHYNPSLKDRLTISKDTSKNQVVLKVTNMDPADTATYYCARDMIFNFYFDVWGQGTTVTVSS
VL: DIQMTQSPSTLSASVGDRVTITCSASSRVGYMHWYQQKPGKAPKLLIYDTFFLDSGVPSRFSGSGSGTEFTLTISSLQPDDFATYYCFQGSGYPFTFGGGTKVEIK
modifications: (1)..(120) Humanized VH domain antibody sequence; (1)..(106) Humanized VL domain antibody sequence

Key:
MEDI-524 Fab = MEDI-524 Fab (Homo sapiens, UniProt P01834+P01857); assay: Isothermal titration calorimetry (ITC) of F peptides with MEDI-524 Fab; format: binding; settings: 18° C., 25 mM His, pH 6.07
Description: Isothermal Titration calorimetry assays (ITC) have been described (see, for example, Heerklotz H et al., Biophysical Journal, May 1999). Molecular interactions are defined by stoichiometry and a few thermodynamic parameters. All binding reactions are associated with the absorption or generation of heat. Therefore calorimetry is emerging as a premier tool for the characterisation of interactions of biological macromolecules. ITC is the only method that measures equilibrium constants, enthalpy and entropy in one single experiment. If the experiment is performed at different temperatures the important parameter, the heat capacity change, can be determined. ITC has become a standard method for investigating the binding of ligands to receptor molecules. Accordingly, ligands are mixed with receptors, and the subsequent heats of incorporation (or binding) are measured.
To obtain binding constants for MEDI-524 Mab and MEDI-524 Fab fragments with F peptides constructed from F protein sequences, ITC was performed.
For this set of experiments, […] (1.16 μM-148.4 KDa) of MEDI-524 Mab and 0.088 mg/mL (1.88 μM-46.3 KDa) of MEDI-524 Fab, both in 25 mM His, pH 6.07 were used. On the other hand, 250 μl of lmg/mL of the different peptides dissolved in H2O, were provided by ABC. The peptides were then diluted into the appropriate volume of buffer to give a final concentration of 50 μM. The ITC experiments were run at 18° C. with the macromolecule (Mab or Fab) in the cell, by doing ˜26 injections of 10 μL of peptides, spaced 360 sec with constant stirring. The data fitting was accomplished by subtracting the average value of the few last injections as the buffer and unspecific heat of dilution contributions. […] A note apart is the fact that the observed binding capacity (N) increases with the length of the peptide, indicating possibly an extra conformational factor in the binding event. The entropic contribution: For the peptides SEQ ID NOs.24 and 26, the entropic factor seems to be similar; the extra amino acids at the end of the N-terminal seem not to affect greatly the binding parameters. On the other hand, the elongation at the C-terminal seems to decrease slightly the binding enthalpy, the binding constant, as well as the entropic factor. The binding capacity seems to be increased in the cases where the 30-mer peptides were used (SEQ ID Nos. 25 and 26), when compare to the SEQ ID NO.24 peptide, possibly due to the longer extent of the whole peptides. The binding constant seems to be smaller (weaker) for both 30-mer peptides respect to the 26-mer.

Numax™ = assay: Biacore kinetic analysis of F peptides on captured Numax™; format: binding; settings: F peptide 100 nM over captured Numax, HBS-EP
Procedure: All studies were performed using Sensor Chip CM5 (Biacore AB, Uppsala, Sweden) which contains a carboxymethyl (CM) dextran matrix and a Biacore®3000 surface plasmon resonance (SPR) biosensor (Biacore AB, Uppsala, Sweden).
Numax™ was captured via a high-affinity interaction between the Fc portion of Numax™ and a goat anti-human IgG(Fc) (KPL, Inc., Gaithersburg, Md.). Goat anti-human IgG(Fc) was covalently attached to the CM dextran matrix using amine coupling chemistry. Two anti-human IgG(Fc)-specific surfaces were created. Numax™ was diluted to 10.9 μg/mL with HBS-EP and flowed for 1 min. across one of the anti-human IgG (Fc) surfaces at a flow rate of 5 μL/min. The other anti-human IgG(Fc) surface was used as a reference surface. F peptide was prepared by dilution in HBS-EP (0.01 M Hepes pH 7.4, 0.15 M NaCl, 3 mM EDTA, 0.005% surfactant P20) to a final concentration of 100 nM. F peptide was injected for 1 min. in a serial-flow manner across the reference surface and the Numax™-specific surface. Dissociation of bound F peptide was monitored for 2 min in the presence of HBS-EP. After this dissociation period, Numax™ and F peptide were removed with a 30-sec injection of 10 mM glycine pH 1.7 (Biacore AB, Uppsala, Sweden). Because of the removal of Numax™, it was necessary to create a new Numax™-specific surface prior to the injection of each F peptide.

RSV B9320 strain mutants = assay: Microneutralization assay of RSV B9320 strain F protein mutants; format: cell-based, respiratory syncytial virus
Description: (§1) Hep-2 cells were infected in 24 well plates with RSV (in some cases, the B9320 RSV strain) in the presence of an anti-RSV monoclonal antibody, such as, for instance, Synagis® (palivizumab) and/or Numax™ (motavizumab) or MEDI-524. The virus was passaged two to three more times in the continued presence of the monoclonal antibody. […] The resulting plaques were purified two times in the presence of the monoclonal antibody. The virus was expanded to produce virus stock in either the presence or absence of the monoclonal antibody. Analysis of susceptibility of the viral mutants to neutralization by Synagis® (palivizumab) and Numax™ (motavizumab) was performed by a microneutralization assay and/or IFA. Finally, the sequence of the mutant F protein was determined by standard methods. […] Antibody contact with residues 262, 268 and 272 appear important.

[1] = system: RSV monoclonal antibody resistant mutants (MARMs); assay: Microneutralization assay of RSV monoclonal antibody resistant mutants (MARMs); format: cell-based, respiratory syncytial virus
Procedure: Neutralization assays have also been described (see, for example, Beller et al., 1989, J Virol 63: 2941-2950, which is incorporated herein by reference in its entirety). Briefly RSV is incubated in the presence of serial dilutions of the agent(s) to be tested (e.g., F peptide) for an appropriate period of time. The mixtures of virus-agent(s) are then transferred to cell monolayers and incubated for an appropriate period of time. Cells are subsequently examined microscopically for cytopathology. Microscopic observations can be confirmed by staining with a glutaraldehyde-crystal violet solution. Neutralization can be expressed as the reciprocal of the highest agent dilution which inhibited more then 95% of the viral cytopathic effect present in the control sample (RSV and cells alone)
as §1

RSV F protein = assay: Biacore kinetic analysis, Numax reference standard; format: binding, respiratory syncytial virus
Description: BIAcore analysis can measure the kinetic interactions of anti-RSV antibodies with RSV F peptides by surface plasmon resonance using a BIAcore 1000, 2000, or 3000 instrument (Biacore, Uppsala, Sweden). Purified recombinant, C-terminally truncated F protein was covalently coupled to a (1-ethyl-3-[3-dimethylaminopropyl]carbodiimide hydrochloride)/N-hydroxysuccinimide-activated CM5 sensor chip at a low protein density (see Johnsson et al. (1991) Anal. Biochem. 198, 268-277). The unreacted active ester groups were blocked with 1 M ethanolamine. For use as a reference, when the BIAcore 2000 or 3000 instrument was used, a blank surface, containing no antigen, was prepared under identical immobilization conditions. To minimize binding variations caused by different lots of F proteins, most of the antibodies were measured against the same lot of F protein. In several cases when different lots of F proteins were used, their binding to an anti-RSV antibody was used as a reference to make sure that these lots had similar binding characteristics to the lot that is used mainly. A serial 2-fold dilution series of purified antibodies, ranging from 0.2 to 100 nm in HBS/Tween 20 buffer (BIAcore), was injected over the F-protein and reference cell surfaces, which were connected in series. In each measurement, the residual antibody was removed from the sensor chip by a brief pulse of 100 mM HCl. The binding curves were globally fitted to a 1:1 Langmuir binding model using the BIAevaluation program. This algorithm calculates both kon and koff. The apparent equilibrium dissociation constant, Kd, was deduced as the ratio of the two rate constants, koff/kon.

[2] = K272N, K272Q or K272I, or double N268L + K272I
[3] = K272E, or double mutation N262Y + K272Q
[4] = MARM 45, K272Q, selection Numax
[5] = MARM 49-B12, K272N, selection Numax
[6] = MARM 63-B6, N268L + K272I, selection Numax
[7] = MARM 63-H2, K272I, selection Numax
[8] = MARM 65-B10, N262Y + K272Q, selection Numax
[9] = MARM 69-C8, K272E, selection Numax
[10] = MARM #10, K272E + N276Y, selection A4b4
[11] = MARM #13, N262K + K272Q, selection Synagis then A4b4
[12] = MARM B1, K272N, selection Synagis
[13] = MARM B2, K272M, selection Synagis
[14] = MARM B7, K272T, selection Synagis
[15] = MARM B9, K272Q, selection Synagis
[16] = MARM NuMARM3, K272E, selection Numax
[17] = all other mutations indicated at position 272

Sequence of MEDI-524 Fab (P01857 with tags, fused parts or gaps limits assumed, other chains not shown): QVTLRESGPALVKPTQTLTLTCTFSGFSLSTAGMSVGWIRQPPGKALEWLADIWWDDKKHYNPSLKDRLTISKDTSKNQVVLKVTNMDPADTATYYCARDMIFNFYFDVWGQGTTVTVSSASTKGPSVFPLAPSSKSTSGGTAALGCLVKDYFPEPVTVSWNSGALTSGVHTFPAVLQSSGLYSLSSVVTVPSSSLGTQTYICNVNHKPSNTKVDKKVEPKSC
Sequence of Numax™ (as listed by the source, one chain of several): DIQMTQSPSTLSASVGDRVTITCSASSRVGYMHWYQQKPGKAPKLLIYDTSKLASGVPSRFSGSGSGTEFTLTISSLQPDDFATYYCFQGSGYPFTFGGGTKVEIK

| Molecule | Ka (association constant) (MEDI-524 Fab) [M⁻¹] | ΔHbinding (MEDI-524 Fab) [kcal/mol] | ΔSbinding (MEDI-524 Fab) | Kd (Numax™) | ka (Numax™) | kd (Numax™) | Neutralization of RSV mutant (RSV B9320 strain mutants; [2]) | Neutralization of RSV mutant (RSV B9320 strain mutants; double mutation K272Q + N262K) | Neutralization of RSV mutant [1, 3] | Neutraliz by antibody? [1, 4] | Neutraliz by antibody? [1, 5] | Neutraliz by antibody? [1, 6] | Neutraliz by antibody? [1, 7] | Neutraliz by antibody? [1, 8] | Neutraliz by antibody? [1, 9] | Neutraliz by antibody? ([1]; MARM #6, K272E, selection A4b4) | Neutraliz by antibody? [1, 10] | Neutraliz by antibody? [1, 11] | Neutraliz by antibody? [1, 12] | Neutraliz by antibody? [1, 13] | further results |
| --- | --- | --- | --- | --- | --- | --- | --- | --- | --- | --- | --- | --- | --- | --- | --- | --- | --- | --- | --- | --- | --- |
| NSELLSLIHDMPITNDQKKLMSNNVQIVRQ [SEQ ID NO: 25] | 6.5e+06 | -10.4 | −4.7 | 7.23 nM and 5.44 nM | 2.50E+05 and 3.62E+05 | 1.81E−03 and 1.97E−03 | – | – | – | – | – | – | – | – | – | – | – | – | – | – | – |
| NSELLSLINDMPITNDQKKLMSNN(X-orn)C [SEQ ID NO: 24] | 1.3e+07 | -12.8 | −11.4 | 2.29 nM | 1.06E+05 | 2.42E−04 | – | – | – | – | – | – | – | – | – | – | – | – | – | – | – |
| NSELLSLINDMPITNDQKKLMSNNC [SEQ ID NO: 27] | – | – | – | 20.4 nM | 2.70E+05 | 5.50E−03 | – | – | – | – | – | – | – | – | – | – | – | – | – | – | – |
| STYMLTNSELLSLIHDMPITNDQKKLMSNN [SEQ ID NO: 26] | 7.1e+06 | -11.4 | −8.1 | 22.7 nM | 2.43E+05 | 5.52E−03 | – | – | – | – | – | – | – | – | – | – | – | – | – | – | – |
| Synagis ®: humanized RSV monoclonal antibody directed against the F glycoprotein of RSV [reference compound] | – | – | – | – | – | – | lost its ability to neutralize RSV | lost their ability to neutralize | longer neutralized RSV | No | No | No | No | No | No | No | No | No | No | No | Neutraliz by antibody? [1, 14]: No; Neutraliz by antibody? [1, 15]: No; Neutraliz by antibody? [1, 16]: No; Neutralization of RSV mutant [1, 17]: eliminate the ability |
| B1 | – | – | – | – | – | – | retain its ability to neutralize RSV at higher concentration | lost their ability to neutralize | longer neutralized RSV | Yes at higher | Yes at higher | Yes at higher | Yes at higher | No | No | No | No | No | Yes | Yes | Neutralization of RSV mutant (RSV B9320 strain mutants; single mutant K272Q): did not knock out; Neutraliz by antibody? [1, 14]: Yes; Neutraliz by antibody? [1, 15]: Yes; Neutraliz by antibody? [1, 16]: No; Neutralization of RSV mutant [1, 17]: retain its ability to neutralize; Kd (RSV F protein): 4 pM; ka (RSV F protein): 4.70E+05; kd (RSV F protein): 1.88E−06 |

Source: patent US9499590B2, “Antibodies against and methods for producing vaccines for respiratory syncytial virus” (MEDIMMUNE, LLC, priority 2009, dated 2016)
